Tested on: IPEC-J2 cells
Assay: TEER cell culture assay: protective effect against polypeptide fungitoxins
Type: cell-based, porcine
Details: for TEER value after addition of toxin (negative control): toxin 0.2-10 μM added on day 8
Protocol: In order to test the correlations of polypeptide fungitoxins on epithelial tissue under controlled conditions, in vitro studies were performed. Therein, well-characterized test systems based on cell cultures and described in the literature were employed. For feed additives, epithelial cells from the respective organ in question, e.g. in the present case IPEC-J2 cells from the porcine intestine, were preferred. The used epithelial cells from the porcine intestine offer the advantage of being non-transformed cells still having all the important properties of normal intestinal cells and large physiological similarities such as the formation of viable tight junction proteins, which are above all essential for the intestinal barrier, as well as the expression of characteristic enzymes and transport systems (e.g. P-glycoprotein, cytochrome P450 3A4, vit. B 12 transporters etc.).
For the in vitro examinations of a Glycyrrhiza dry extract, the latter was extracted once again, thus producing a secondary Glycyrrhiza extract. The secondary Glycyrrhiza extract was prepared in that 1 g of the Glycyrrhiza dry extract and 9 ml 70% ethanol was each weighed in, mixed, and shaken at 700 rpm for one hour at room temperature. After this, the solution was centrifuged, and the liquid supernatant was sterile filtered using a 0.2 μm filter and further diluted with IPEC-J2 medium. The secondary Glycyrrhiza extract was tested in vitro in the following concentrations: 250 μg, 500 μg and 1,000 μg Glycyrrhiza dry extract per ml medium in the test formulation, in the following also referred to as 250, 500 and 1,000 μg/ml secondary Glycyrrhiza extract.
The TEER technique described by Geens and Niewold (Cytotechnology, 2011, 63, 415 et seq.) was used in an adapted form. In this in vitro model, intestinal porcine epithelial cells (IPEC-J2, DSMZ No.: ACC 701, Passage 1-15) are cultivated in an insert on a permeable polyester membrane (1.12 cm^2 surface area, 0.4 μm pore size, 12 mm membrane diameter) and differentiated in the incubator for a period of 8 days at 39° C. and 5% CO2. Per insert, 1×10^∧5 cells in 0.5 ml medium are applied to the respective membrane. During said differentiation period, the used medium was aspirated every other day and replaced with fresh medium. The insert was fixed in a 12-well cell culture plate, and the cells were supplied with 1.5 ml medium from below (basolateral compartment) and with 0.5 ml medium from above (apical compartment). […]
Differentiated cells form a cell barrier, being strongly interconnected by tight junction proteins. […] The intactness of the cell barrier is measured by means of a volt-ohmmeter: The electrical resistance between the two compartments is referred to as TEER (transepithelial electrical resistance) value and represented in kOhm×cm^2. […]

Row | Compound | TEER value after addition of toxin (negative control) | other results
1 | CC[C@H](C)[C@H]1C(=O)O[C@H](C(C)C)C(=O)N(C)[C@@H]([C@@H](C)CC)C(=O)O[C@H](C(C)C)C(=O)N(C)[C@@H]([C@@H](C)CC)C(=O)O[C@H](C(C)C)C(=O)N1C [enniatin A] |  | TEER mean value (toxin) (enniatin A 5 μM alone (negative control), after 24 hours): 3.928 kOhm×cm^2
2 | CC1(C)[C@@H](O[C@H]2O[C@H](C(=O)O)[C@@H](O)[C@H](O)[C@H]2O[C@@H]2O[C@H](C(=O)O)[C@@H](O)[C@H](O)[C@H]2O)CC[C@]2(C)[C@H]3C(=O)C=C4[C@@H]5C[C@@](C)(C(=O)O)CC[C@]5(C)CC[C@@]4(C)[C@]3(C)CC[C@@H]12 [glycyrrhizic acid] |  | Effect in the TEER test against enniatins A, A1, B, B1, beauvericin and apicidin relative to the negative controls (70 μg/ml (corresponding to 1.000 μg/ml secondary Glycyrrhiza extract)): no positive effect
3 | CCC(=O)CCCCC[C@@H]1NC(=O)[C@H]2CCCCN2C(=O)[C@H]([C@@H](C)CC)NC(=O)[C@H](Cc2cn(OC)c3ccccc23)NC1=O [apicidin] | lowered | 
4 | enniatins | lowered | 

Reference: US11096980B2, “Method of using glycyrrhiza plant-based preparation to reduce toxic effect of polypeptide fungitoxin” (priority 2016, dated 2021)
